Assay results as given in PubChem BioAssay (NCI).
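GI50: concentration for 50% inhibition of growth. TGI is the concentration that stops growth completely.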

Legend:
Experiment in all cases: inhibition of tumour cell growth, NCI panel, 384-well format
SR leukemia = system: SR leukemia
M14 melanoma = system: M14 melanoma
SK-MEL-2 melanoma = system: SK-MEL-2 melanoma
786-0 renal = system: 786-0 renal
A549 NSCLC = system: A549 NSCLC
SF-268 CNS = system: SF-268 CNS
SW-620 colon = system: SW-620 colon
COLO 205 colon = system: COLO 205 colon
MCF7 breast = system: MCF7 breast
SF-295 CNS = system: SF-295 CNS
HOP-92 NSCLC = system: HOP-92 NSCLC
NCI-H522 lung = system: NCI-H522 lung
OVCAR-3 ovarian = system: OVCAR-3 ovarian
HT29 colon = system: HT29 colon
TK-10 renal = system: TK-10 renal
MALME-3M melanoma = system: MALME-3M melanoma
BT-549 breast = system: BT-549 breast
T-47D breast = system: T-47D breast
OVCAR-8 ovarian = system: OVCAR-8 ovarian
NCI-H322M lung = system: NCI-H322M lung
MDA-MB-468 breast = system: MDA-MB-468 breast
CAKI-1 renal = system: CAKI-1 renal
SN12C renal = system: SN12C renal
OVCAR-5 ovarian = system: OVCAR-5 ovarian
A498 renal = system: A498 renal
SK-MEL-5 melanoma = system: SK-MEL-5 melanoma
HCT-15 colon = system: HCT-15 colon
EKVX NSCLC = system: EKVX NSCLC
MDA-MB-231 breast = system: MDA-MB-231 breast
ACHN renal = system: ACHN renal
NCI-H460 NSCLC = system: NCI-H460 NSCLC
HOP-62 NSCLC = system: HOP-62 NSCLC
MDA-MB-435 melanoma = system: MDA-MB-435 melanoma
HS 578T breast = system: HS 578T breast
PC-3 prostate = system: PC-3 prostate
HL-60(TB) leukemia = system: HL-60(TB) leukemia
KM12 colon = system: KM12 colon
UACC-257 melanoma = system: UACC-257 melanoma
IGROV1 ovarian = system: IGROV1 ovarian
U251 glioblastoma = system: U251 glioblastoma
SNB-75 CNS = system: SNB-75 CNS
SF-539 CNS = system: SF-539 CNS
UO-31 renal = system: UO-31 renal
HCT-116 colon = system: HCT-116 colon
SK-OV-3 ovarian = system: SK-OV-3 ovarian
UACC-62 melanoma = system: UACC-62 melanoma
NCI-H23 lung = system: NCI-H23 lung
OVCAR-4 ovarian = system: OVCAR-4 ovarian
RXF 393 renal = system: RXF 393 renal
SK-MEL-28 melanoma = system: SK-MEL-28 melanoma
SNB-19 CNS = system: SNB-19 CNS
K-562 leukemia = system: K-562 leukemia
DU-145 prostate = system: DU-145 prostate
NCI-H226 lung = system: NCI-H226 lung
MOLT-4 leukemia = system: MOLT-4 leukemia

CCc1c2c(nc3ccc(OC(=O)N4CCC(N5CCCCC5)CC4)cc13)-c1cc3c(c(=O)n1C2)COC(=O)[C@]3(O)CC
GI50 (SR leukemia): 0.15 µM | TGI (SR leukemia): 0.299 µM | GI50 (M14 melanoma): 4.12 µM | TGI (M14 melanoma): 26 µM | GI50 (SK-MEL-2 melanoma): 16.2 µM | TGI (SK-MEL-2 melanoma): 40.3 µM | GI50 ([…]-0 renal): 3.02 µM | TGI (786-0 renal): 10.4 µM | GI50 (A549 NSCLC): 8.58 µM | TGI (A549 NSCLC): 94.1 µM | GI50 (SF-268 CNS): 1.07 µM | TGI (SF-268 CNS): 10.2 µM | GI50 (SW-620 colon): 0.851 µM | TGI (SW-620 colon): 18.1 µM | GI50 (COLO 205 colon): 2.7 µM | TGI (COLO 205 colon): 21 µM | GI50 (MCF7 breast): 1.3 µM | TGI (MCF7 breast): 14.8 µM | GI50 (SF-295 CNS): 1.89 µM | TGI (SF-295 CNS): 4.34 µM | GI50 (HOP-92 NSCLC): 6.81 µM | TGI (HOP-92 NSCLC): 43.9 µM | GI50 (NCI-H522 lung): 1.85 µM | TGI (NCI-H522 lung): 16.7 µM | GI50 (OVCAR-3 ovarian): 1.45 µM | TGI (OVCAR-3 ovarian): 14.2 µM | GI50 (HT29 colon): 6.08 µM | TGI (HT29 colon): 19.7 µM | GI50 (TK-10 renal): 9.46 µM | TGI (TK-10 renal): 38.7 µM | GI50 (MALME-3M melanoma): 10.7 µM | TGI (MALME-3M melanoma): 36.2 µM | GI50 (BT-549 breast): 2.51 µM | TGI (BT-549 breast): 13.4 µM | GI50 (T-47D breast): 3.53 µM | TGI (T-47D breast): 41 µM | GI50 (OVCAR-8 ovarian): 4.03 µM | TGI (OVCAR-8 ovarian): 54.7 µM | GI50 (NCI-H322M lung): 16 µM | TGI (NCI-H322M lung): 42.3 µM | GI50 (MDA-MB-468 breast): 0.731 µM | TGI (MDA-MB-468 breast): 3.01 µM | GI50 (CAKI-1 renal): 3.08 µM | TGI (CAKI-1 renal): > 100 µM | GI50 (SN12C renal): 2.58 µM | TGI (SN12C renal): 7.58 µM | GI50 (OVCAR-5 ovarian): 14.9 µM | TGI (OVCAR-5 ovarian): 34.7 µM | GI50 (A498 renal): 5.29 µM | TGI (A498 renal): 19.9 µM | GI50 (SK-MEL-5 melanoma): 2.28 µM | TGI (SK-MEL-5 melanoma): 10.8 µM | GI50 (HCT-15 colon): 5.87 µM | TGI (HCT-15 colon): 24.1 µM | GI50 (EKVX NSCLC): 13.5 µM | TGI (EKVX NSCLC): 45 µM | GI50 (MDA-MB-231 breast): 16.9 µM | TGI (MDA-MB-231 breast): > 100 µM | GI50 (ACHN renal): 2.11 µM | TGI (ACHN renal): 5.05 µM | GI50 (NCI-H460 NSCLC): 4.26 µM | TGI (NCI-H460 NSCLC): 24.5 µM | GI50 (HOP-62 NSCLC): 1.57 µM | TGI (HOP-62 NSCLC): 4.42 µM | GI50 (MDA-MB-435 melanoma): 10.9 µM | TGI (MDA-MB-435 melanoma): 25.7 µM | GI50 (HS 578T breast): 1.69 µM | TGI (HS 578T breast): 17.4 µM | GI50 (PC-3 prostate): 12.1 µM | TGI (PC-3 prostate): 66.5 µM | GI50 (HL-60(TB) leukemia): 1.62 µM | TGI (HL-60(TB) leukemia): 3 µM | GI50 (KM12 colon): 2.04 µM | TGI (KM12 colon): 10.7 µM | GI50 (UACC-257 melanoma): 7.82 µM | TGI (UACC-257 melanoma): 29.3 µM | GI50 (IGROV1 ovarian): 10.3 µM | TGI (IGROV1 ovarian): 29.1 µM | GI50 (U251 glioblastoma): 2.11 µM | TGI (U251 glioblastoma): 11.8 µM | GI50 (SNB-75 CNS): 2.3 µM | TGI (SNB-75 CNS): 8.61 µM | GI50 (SF-539 CNS): 2.08 µM | TGI (SF-539 CNS): 5.14 µM | GI50 (UO-31 renal): 8.09 µM | TGI (UO-31 renal): 41.2 µM | GI50 (HCT-116 colon): 1.84 µM | TGI (HCT-116 colon): 15.5 µM | GI50 (SK-OV-3 ovarian): 2.91 µM | TGI (SK-OV-3 ovarian): 16.4 µM | GI50 (UACC-62 melanoma): 1.21 µM | TGI (UACC-62 melanoma): 7.79 µM | GI50 (NCI-H23 lung): 2.71 µM | TGI (NCI-H23 lung): 9.66 µM | GI50 (OVCAR-4 ovarian): 21.5 µM | TGI (OVCAR-4 ovarian): 59.8 µM | GI50 (RXF 393 renal): 0.767 µM | TGI (RXF 393 renal): 5.45 µM | GI50 (SK-MEL-28 melanoma): 7.12 µM | TGI (SK-MEL-28 melanoma): 36.8 µM | GI50 (SNB-19 CNS): 4.15 µM | TGI (SNB-19 CNS): > 100 µM | GI50 (K-562 leukemia): 3.12 µM | TGI (K-562 leukemia): 20.8 µM | GI50 (DU-145 prostate): 2.56 µM | TGI (DU-145 prostate): 9.11 µM | GI50 (NCI-H226 lung): 3.43 µM | TGI (NCI-H226 lung): 18.8 µM | GI50 (MOLT-4 leukemia): 0.153 µM | TGI (MOLT-4 leukemia): 0.301 µM
